Drawing on US9867814B2, “Use of non-peptidic NK1 receptor antagonists for the production of apoptosis in tumour cells” (NK-1 IP LIMITED, priority 2004, dated 2018), this text covers cellular growth and apoptosis for 1 compound.

What all share (type): cell-based, human
For one assay, the system named is COLO-677. The assay can be described thus: MTS cell proliferation assay, small cell lung cancer line COLO-677. Conditions: COLO-677 cells. The method, then:
Cellular lines related with small cell lung cancer COLO-677 (DSMZ) was used. This cellular line was maintained in a culture of RPMI 1640 supplemented with 10% fetal bovine serum according to the established cellular culture conditions of the ATCC.
(§1) The cellular line was cultivated in flasks of 75 ml (Falcon, Germany). Half were renewed every two days and the cells were treated with Trypsin (0.05% and 0.02% EDTA without Ca2+ and Mg2+) every six days. The cells were incubated at a temperature of 37 C in a humidification of (95% air/5% CO2). […]
(§2) The cell proliferation was evaluated using the MTS method [3-(4,5-dimethylthiazol-2-il)-5-(3-carboxymethoxyphenyl) 2-(4-sulfophenyl)-2H-tetrazolium], following the instructions of use by the manufacturer (CellTiter 96 Aqueous One Solution Cell Proliferation Assay, Promega, USA).
(§3) During the experiment, the cultivated cells were broken apart every 4-5 days by way of trypsinization and to test the cell viability the blue trypan method was used. The cells were quantified and cultured in plates of 96 wells each. […]
In T0, 20 μl of MTS was immediately added to the wells and they were read 90 minutes later. […]
To study the proliferation of the cells 20 μL of MTS reactor was added to each well (T1, T2) 90 min., before reading the samples with the plate reader (TECAN Spectra Classic) at 492 nm. […]

In another assay the test system is A-204. The assay can be described thus: MTS cell proliferation assay, rhabdomyosarcoma line A-204. The conditions noted are these: A-204 cells. Here is the method: Cellular Lines Related to Human Rhabdomyosarcoma A-204 (DSMZ) were Used.
This cellular line was maintained in a culture of Mc-Co-supplemented with 10% fetal bovine serum according to the established cellular culture conditions of the ATCC.
as §1
The cell proliferation was evaluated using the MTS method [3-(4,5-dimethylthiazol-2il)-5-(3-carboxymethoxyphenyl) 2-(4-sulfophenyl)-2H-tetrazolium], following the instructions of use by the manufacturer (CellTiter 96 Aqueous One Solution Cell Proliferation Assay, Promega, USA).
as §3
In T0, 20 μl of MTS was immediately added to the wells and were read 90 minutes later. […]
To study the proliferation of the cells 20 μl of MTS reactor was added to each well (T1, T2) 90 min., before reading the samples with the plate reader (TECAN Spectra Classic) at 492 nm. […]
(In general: Tetrazolium dyes change colour on reduction, which living cells bring about.)

Another assay relates to CA-46. The assay can be described thus: MTS cell proliferation assay, Burkitt's lymphoma line CA-46. The conditions noted are these: CA-46 cells. Here is the method: Cellular lines related with Burkitt's human lymphoma The cellular line of Burkitt's human lymphoma was used with CA-46 (DSMZ).
This cellular line was maintained in a culture of RPMI 1640 supplemented with 10% fetal bovine serum according to the established cellular culture conditions of the ATCC.
The cellular lines were cultivated in flasks of 75 ml (Falcon, Germany). Half was renewed every two days and the cells were treated with Trypsin (0.05% and 0.02% EDTA […]) every six days. The cells were incubated at 37 C in a humidification of (95% air/5% CO2). […]
as §2
The cells were quantified and cultured in plates of 96 wells each. […]
In T0, 20 μL of MTS was immediately added to the wells and they were read 90 minutes later. […]
To study the proliferation of the cells 20 µl of reactive MTS was added to each well (T1, T2) 90 min before reading the samples with the plate reader (TECAN Spectra Classic) at 492 nm. The quantity of reactive MTS was measured by optical density, being directly proportional in number of live cells. […]

Turning to `FC(F)(F)c1cc(CO[C@H]2CCCN[C@H]2c2ccccc2)cc(C(F)(F)F)c1` [L-733,060, (2S,3S) 3-([3,5-Bis(trifluoromethyl)phenyl]metoxi)-2-phenylpiperidine], the cellular growth entry is reported as “Cellular growth is inhibited” in the assay on COLO-677 (at the highest concentrations (5 μM to 20 μM tested), 40 hrs. and 96 hrs. incubation); “Cellular growth is inhibited” in the assay with A-204 (at the highest concentrations (2.5 μM to 20 μM tested), 36 hrs. and 72 hrs. incubation); “inhibition in cellular growth was produced” in the assay on CA-46 (at the highest concentrations (2.5 μM to 25 μM tested), 35 hrs. and 72 hrs. incubation). In addition, the apoptosis result in the assay on COLO-677 (at the maximum dose (5 μM to 20 μM tested)), with A-204 (at the maximum dose (2.5 μM to 20 μM tested)) and in the assay with CA-46 (at the maximum dose (2.5 μM to 25 μM tested)) was “apoptosis” in each case.
